Experimental data from ChEMBL document CHEMBL5034034 (J Med Chem, 2021).
pEC50, pKi: −log10 of the molar value. The source made the active and inactive calls. The rule behind the calls is not given here.

Experiments:
[1] = Volume of distribution at steady state in cynomolgus monkey at 1 mg/kg, iv measured upto 72 hrs by LC-MS/MS analysis; assay type: ADME, organism-based, Macaca fascicularis; settings: in vivo, read-out: Vdss
[2] = Unbound clearance in cynomolgus monkey at 1 mg/kg, iv measured upto 72 hrs by LC-MS/MS analysis; assay type: ADME, organism-based, Macaca fascicularis; settings: in vivo
[3] = Protein binding in OATP knock out Wistar Han rat; assay type: ADME; settings: read-out: PB
[4] = target: T1, Solute carrier organic anion transporter family member 1B1 (Homo sapiens, UniProt Q9Y6L6); assay: Inhibition of OATP1B1 (unknown origin) expressed in HEK293 cells assessed as reduction in OATP 1B1-mediated [3H]-pitavastatin uptake preincubated for 30 mins followed by [3H]-pitavastatin addition and measured after 2 mins by liquid scintillation analysis; assay type: cell-based
T1 sequence (Q9Y6L6 whole entry): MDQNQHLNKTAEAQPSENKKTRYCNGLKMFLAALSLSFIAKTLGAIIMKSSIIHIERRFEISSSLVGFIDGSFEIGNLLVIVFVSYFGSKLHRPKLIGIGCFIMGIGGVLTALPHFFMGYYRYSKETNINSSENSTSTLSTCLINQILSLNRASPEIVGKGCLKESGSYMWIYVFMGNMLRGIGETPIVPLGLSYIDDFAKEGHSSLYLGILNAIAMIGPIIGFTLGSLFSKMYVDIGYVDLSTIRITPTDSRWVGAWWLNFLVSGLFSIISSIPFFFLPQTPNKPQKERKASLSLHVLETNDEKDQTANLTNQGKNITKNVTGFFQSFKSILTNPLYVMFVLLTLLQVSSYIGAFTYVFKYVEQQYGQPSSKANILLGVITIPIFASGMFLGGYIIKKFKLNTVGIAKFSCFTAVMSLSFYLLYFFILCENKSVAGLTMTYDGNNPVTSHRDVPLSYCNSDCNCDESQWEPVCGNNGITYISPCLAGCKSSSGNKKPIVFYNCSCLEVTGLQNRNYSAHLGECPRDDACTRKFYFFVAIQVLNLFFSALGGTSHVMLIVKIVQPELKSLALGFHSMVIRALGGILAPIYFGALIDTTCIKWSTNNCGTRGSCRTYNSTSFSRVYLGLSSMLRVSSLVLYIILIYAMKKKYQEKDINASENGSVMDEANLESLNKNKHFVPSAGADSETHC

[5] = Protein binding in cynomolgus monkey at 1 mg/kg, iv measured upto 72 hrs by LC-MS/MS analysis; assay type: ADME, organism-based, Macaca fascicularis; settings: in vivo, read-out: PB (converted)
[6] = AUC(0 to infinity) in cynomolgus monkey at 1 mg/kg, iv measured upto 72 hrs by LC-MS/MS analysis; assay type: ADME, organism-based, Macaca fascicularis; design: route intravenous, dose 1 mg/kg, time <=72; settings: in vivo
[7] = Unbound clearance in Wistar Han rat at 1 mg/kg, iv measured upto 24 hrs by LC-MS/MS analysis; assay type: ADME, organism-based; settings: in vivo
[8] = target: T2, Proprotein convertase subtilisin/kexin type 9 (Homo sapiens, UniProt Q8NBP7); assay: Inhibition of human PCSK9 using Alexa Fluor […] as substrate incubated for 2 hrs by FRET plus assay
T2 sequence (Q8NBP7 31-152 limits assumed): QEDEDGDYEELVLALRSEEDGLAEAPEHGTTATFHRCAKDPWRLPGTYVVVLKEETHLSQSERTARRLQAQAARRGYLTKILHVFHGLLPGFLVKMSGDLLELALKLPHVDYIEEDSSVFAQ
T2 sequence (Q8NBP7 153-692 limits assumed): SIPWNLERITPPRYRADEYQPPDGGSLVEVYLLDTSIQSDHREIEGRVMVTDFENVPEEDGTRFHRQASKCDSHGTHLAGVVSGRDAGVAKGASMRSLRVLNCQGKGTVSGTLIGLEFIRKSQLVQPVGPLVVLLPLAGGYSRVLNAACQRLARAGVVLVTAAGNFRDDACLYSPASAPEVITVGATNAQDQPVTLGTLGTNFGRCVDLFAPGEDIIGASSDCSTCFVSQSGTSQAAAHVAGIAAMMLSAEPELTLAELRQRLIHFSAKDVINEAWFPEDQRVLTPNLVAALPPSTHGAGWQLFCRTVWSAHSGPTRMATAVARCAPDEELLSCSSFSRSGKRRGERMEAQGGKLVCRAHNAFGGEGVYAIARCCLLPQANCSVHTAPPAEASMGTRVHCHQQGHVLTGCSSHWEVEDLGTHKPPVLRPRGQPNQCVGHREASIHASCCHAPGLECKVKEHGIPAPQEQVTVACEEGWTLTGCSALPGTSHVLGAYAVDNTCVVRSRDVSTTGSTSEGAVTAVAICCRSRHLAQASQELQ

[9] = AUC(0 to infinity) in OATP knock out Wistar Han rat at 1 mg/kg, iv measured upto 24 hrs by LC-MS/MS analysis; assay type: ADME, organism-based; design: route intravenous, dose 1 mg/kg, time <=24; settings: in vivo
[10] = Clearance in Wistar Han rat at 1 mg/kg, iv measured upto 24 hrs by LC-MS/MS analysis; assay type: ADME, organism-based; settings: in vivo
[11] = Volume of distribution at steady state in OATP knock out Wistar Han rat at 1 mg/kg, iv measured upto 24 hrs by LC-MS/MS analysis; assay type: ADME, organism-based; settings: in vivo, read-out: Vdss
[12] = Clearance in cynomolgus monkey at 1 mg/kg, iv measured upto 72 hrs by LC-MS/MS analysis; assay type: ADME, organism-based, Macaca fascicularis; settings: in vivo
[13] = Clearance in OATP knock out Wistar Han rat at 1 mg/kg, iv measured upto 24 hrs by LC-MS/MS analysis; assay type: ADME, organism-based; settings: in vivo
[14] = target: T2, Proprotein convertase subtilisin/kexin type 9; assay: Inhibition of human PCSK9 using Alexa Fluor […] as substrate incubated for 2 hrs by FRET assay
Mast cell = assay: Induction of rat mast cells degranulation activity at 100 uM incubated for 30 mins; assay type: functional, tissue-based
[15] = Half life in OATP knock out Wistar Han rat at 1 mg/kg, iv measured upto 24 hrs by LC-MS/MS analysis; assay type: ADME, organism-based; settings: in vivo
[16] = Protein binding in Wistar Han rat at 1 mg/kg, iv measured upto 24 hrs by LC-MS/MS analysis; assay type: ADME, organism-based; settings: in vivo, read-out: PB (converted)
[17] = Unbound clearance in OATP knock out Wistar Han rat at 1 mg/kg, iv measured upto 24 hrs by LC-MS/MS analysis; assay type: ADME, organism-based; settings: in vivo
[18] = AUC(0 to infinity) in Wistar Han rat at 1 mg/kg, iv measured upto 24 hrs by LC-MS/MS analysis; assay type: ADME, organism-based; design: route intravenous, dose 1 mg/kg, time <=24; settings: in vivo
[19] = Half life in cynomolgus monkey at 1 mg/kg, iv measured upto 72 hrs by LC-MS/MS analysis; assay type: ADME, organism-based, Macaca fascicularis; settings: in vivo
[20] = Half life in Wistar Han rat at 1 mg/kg, iv measured upto 24 hrs by LC-MS/MS analysis; assay type: ADME, organism-based; settings: in vivo
[21] = Volume of distribution at steady state in Wistar Han rat at 1 mg/kg, iv measured upto 24 hrs by LC-MS/MS analysis; assay type: ADME, organism-based; settings: in vivo, read-out: Vdss

COc1ccc(C[C@@H]2NC(=O)[C@H]([C@@H](C)OC)NC(=O)[C@@H]3[C@@H]4CCN3C(=O)[C@H](Cc3c[nH]c5ccc(F)cc35)NC(=O)[C@H](Cc3cccc(c3)C/C=C/CO4)NC(=O)[C@@H](C)NC(=O)[C@H](C)NC(=O)CCSCc3cccc(c3)CSCCNC(=O)[C@]3(C)CCCN3C2=O)cc1
Vd [1]: 2.1 L/kg | CL free [2]: 576 mL/min/kg | fraction unbound [3]: 0.01 | pEC50 [4]: 6.89 | fraction unbound at 72 h [5]: 0.024 | AUC(0-inf) [6]: 0.648 µM·h | CL free [7]: > 3000 mL/min/kg | pKi [8]: 9.41 | AUC(0-inf) [9]: 2.92 µM·h | clearance [10]: 28.7 mL/min/kg | Vd [11]: 0.9 L/kg | clearance [12]: 19.6 mL/min/kg | clearance [13]: 4.4 mL/min/kg | pKi [14]: 9.32 | Activity (Mast cell): inactive | half-life [15]: 3.9 h | fraction unbound at 24 h [16]: 0.01 | CL free [17]: 453 mL/min/kg | AUC(0-inf) [18]: 0.442 µM·h | half-life [19]: 3.4 h | half-life [20]: 2.1 h | Vd [21]: 0.8 L/kg
